For data set [1], the system named is Pseudomonas aeruginosa. Kind of data set: Ratio of MIC for PiuA/PirA receptor-deficient Pseudomonas aeruginosa PAO1 to MIC for Pseudomonas aeruginosa PAO1 in Muller-Hinton broth medium by broth microdilution method. It is filed as functional. Background: Dilution methods test growth across graded concentrations, often in twofold steps.
Data set [2] has as its system Klebsiella pneumoniae. Description: Antibacterial activity against Klebsiella pneumoniae expressing defined beta-lactamase by broth microdilution method. It is filed as functional.
The nature of data set [3]: Inhibition of PBP1b in Pseudomonas aeruginosa ATCC 27853 after 20 mins by fluorescence assay.
The subject of data set [4] is Escherichia coli. Description: Antibacterial activity against Escherichia coli expressing ESBL by broth microdilution method. It is filed as functional.
In data set [5] the test system is Pseudomonas aeruginosa. Description: Antibacterial activity against PiuA/FpvA receptor-deficient Pseudomonas aeruginosa PAO1 in Muller-Hinton broth medium by broth microdilution method. Format: functional.
A short description of data set [6]: Inhibition of PBP3 in Pseudomonas aeruginosa ATCC 27853 after 20 mins by fluorescence assay.
The subject of data set [7] is Pseudomonas aeruginosa. Description: Antibacterial activity against PiuA receptor-deficient Pseudomonas aeruginosa PAO1 in Muller-Hinton broth medium by broth microdilution method. It is filed as functional.
For data set [8], the system named is Pseudomonas aeruginosa. Kind of data set: Antibacterial activity against PiuA/FptA receptor-deficient Pseudomonas aeruginosa PAO1 in Muller-Hinton broth medium by broth microdilution method. Format: functional.
The subject of data set [9] is Pseudomonas aeruginosa. Kind of data set: Antibacterial activity against Pseudomonas aeruginosa 1042-06 by broth microdilution method. It is filed as functional.
A further data set has as its system Acinetobacter sp. Description: Antibacterial activity against Acinetobacter spp. by broth microdilution method. Format: functional.
In data set [10] the test system is Escherichia coli. Description: Antibacterial activity against Escherichia coli expressing defined beta-lactamase by broth microdilution method. It is filed as functional.
The subject of data set [11] is Pseudomonas aeruginosa. Kind of data set: Antibacterial activity against PiuA receptor-deficient Pseudomonas aeruginosa PAO1 in iron-chelated Muller-Hinton broth medium by broth microdilution method. It is filed as functional.
The nature of data set [12]: Inhibition of PBP1a in Pseudomonas aeruginosa ATCC 27853 after 20 mins by fluorescence assay.
Data set [13] in a line: Fraction unbound in mouse plasma. Format: ADME, cell-free.
Data set [14] in a line: Fraction unbound in rat plasma. Format: ADME, cell-free.
For data set [15], the system named is Pseudomonas aeruginosa. Kind of data set: Antibacterial activity against PiuA/FptA receptor-deficient Pseudomonas aeruginosa PAO1 in iron-chelated Muller-Hinton broth medium by broth microdilution method. Format: functional.
Data set [16] concerns Pseudomonas aeruginosa. Description: Antibacterial activity against PirA receptor-deficient Pseudomonas aeruginosa PAO1 in iron-chelated Muller-Hinton broth medium by broth microdilution method. It is filed as functional.
Data set [17] deals with Pseudomonas aeruginosa. Kind of data set: Antibacterial activity against Pseudomonas aeruginosa PAO1 in Muller-Hinton broth medium by broth microdilution method. It is filed as functional.
Data set [18] deals with Pseudomonas aeruginosa. Kind of data set: Antibacterial activity against FptA receptor-deficient Pseudomonas aeruginosa PAO1 in Muller-Hinton broth medium by broth microdilution method. Format: functional.
Data set [19] deals with Pseudomonas aeruginosa. Kind of data set: Antibacterial activity against FpvA receptor-deficient Pseudomonas aeruginosa PAO1 in Muller-Hinton broth medium by broth microdilution method. Format: functional.
The test system of data set [20] is Escherichia coli. Kind of data set: Antibacterial activity against Escherichia coli expressing CTX-M by broth microdilution method. It is filed as functional.
Another data set relates to Acinetobacter baumannii. Kind of data set: Antibacterial activity against Acinetobacter baumannii AB-3167 by broth microdilution method. It is filed as functional.
The test system of data set [21] is Pseudomonas aeruginosa. Kind of data set: microbe, parasite or virus in culture. To be noted: 1091-05.
Description: Antibacterial activity against Pseudomonas aeruginosa 1091-05 by broth microdilution method
Data set [22] deals with Pseudomonas aeruginosa. Description: Antibacterial activity against PirA receptor-deficient Pseudomonas aeruginosa PAO1 in Muller-Hinton broth medium by broth microdilution method. Format: functional.
The nature of data set [23]: Fraction unbound in human plasma. Format: ADME, cell-free.
Data set [24] relates to Pseudomonas aeruginosa. Description: Antibacterial activity against PiuA/PirA receptor-deficient Pseudomonas aeruginosa PAO1 in Muller-Hinton broth medium by broth microdilution method. Format: functional.
For a further data set, the system named is Rattus norvegicus. Description: Intrinsic clearance in Wistar Han rat at 1 mg/kg, iv by LC/MS/MS analysis. It is filed as ADME, organism-based. More on the design: dose 1 mg/kg, route intravenous. To be noted: in vivo.
In data set [25] the test system is Klebsiella pneumoniae. Kind of data set: Antibacterial activity against Klebsiella pneumoniae 1000-02 by broth microdilution method. Format: functional.
Data set [26] can be described thus: Plasma clearance in Wistar Han rat at 1 mg/kg, iv by LC/MS/MS analysis. Format: ADME, organism-based. Also noted: dose 1 mg/kg, route intravenous.
For data set [27], the system named is Klebsiella pneumoniae. Description: Antibacterial activity against Klebsiella pneumoniae 1487-07 by broth microdilution method. It is filed as functional.
The test system of data set [28] is Pseudomonas aeruginosa. Description: Antibacterial activity against Pseudomonas aeruginosa from cystic fibrosis patients by broth microdilution method. It is filed as functional.
For data set [29], the system named is Pseudomonas aeruginosa. Description: Antibacterial activity against Pseudomonas aeruginosa expressing metallo-beta-lactamase by broth microdilution method. It is filed as functional.
Data set [30] concerns Pseudomonas aeruginosa. Kind of data set: Ratio of MIC for PiuA receptor-deficient Pseudomonas aeruginosa PAO1 to MIC for Pseudomonas aeruginosa PAO1 in Muller-Hinton broth medium by broth microdilution method. It is filed as functional.
The test system of data set [31] is Pseudomonas aeruginosa. Kind of data set: Antibacterial activity against PiuA/PirA receptor-deficient Pseudomonas aeruginosa PAO1 in iron-chelated Muller-Hinton broth medium by broth microdilution method. It is filed as functional.
A short description of data set [32]: Inhibition of PBP2 in Pseudomonas aeruginosa ATCC 27853 after 20 mins by fluorescence assay.
Data set [33] deals with Pseudomonas aeruginosa. Description: Antibacterial activity against PiuA/FpvA receptor-deficient Pseudomonas aeruginosa PAO1 in iron-chelated Muller-Hinton broth medium by broth microdilution method. Format: functional.
The test system of data set [34] is Pseudomonas aeruginosa. Kind of data set: Antibacterial activity against FpvA receptor-deficient Pseudomonas aeruginosa PAO1 in iron-chelated Muller-Hinton broth medium by broth microdilution method. Format: functional.
Data set [35] concerns Pseudomonas aeruginosa. Description: Antibacterial activity against FptA receptor-deficient Pseudomonas aeruginosa PAO1 in iron-chelated Muller-Hinton broth medium by broth microdilution method. Format: functional.
Data set [36] concerns Klebsiella pneumoniae. Kind of data set: Antibacterial activity against Klebsiella pneumoniae expressing KPC by broth microdilution method. Format: functional.
For data set [37], the system named is Klebsiella pneumoniae. Kind of data set: Antibacterial activity against Klebsiella pneumoniae expressing ESBL by broth microdilution method. Format: functional.
Data set [38] relates to Pseudomonas aeruginosa. Kind of data set: Ratio of MIC for PiuA/PirA receptor-deficient Pseudomonas aeruginosa PAO1 to MIC for Pseudomonas aeruginosa PAO1 in iron-chelated Muller-Hinton broth medium by broth microdilution method. Format: functional.

≈ marks a conversion by molar mass, not a printed value.

By MIC50 is commonly meant the lowest concentration that inhibits either 50% of growth or 50% of the strains tested, depending on the study. As usually defined, the MIC90 is the lowest concentration that inhibits either 90% of growth or 90% of the strains tested, depending on the study. A lower MIC90 goes with higher susceptibility. The IC50 is the midpoint of a concentration-inhibition curve. In general, fraction unbound refers to free concentration divided by total concentration. Read a high fraction unbound as much free substance. What is called clearance is a measure of how efficiently the substance is removed, as volume per time. Low readings indicate a low capacity for elimination, high ones a high capacity for elimination.

For the molecule `CC(C)(O/N=C(\C(=O)N[C@@H]1C(=O)N(S(=O)(=O)O)[C@@H]1CNC(=O)NCc1cc(=O)c(O)cn1O)c1csc(N)n1)C(=O)O`, the Ratio entry in the data set with Pseudomonas aeruginosa [1] was “>=64”; with Pseudomonas aeruginosa [30] it was 32; in the data set on Pseudomonas aeruginosa [38], “>=64”. Also, the MIC50 was 0.5 µg/mL (≈ 0.79 µM) against Klebsiella pneumoniae [2]; 0.25 µg/mL (≈ 0.395 µM) with Escherichia coli [4]; 8 µg/mL (≈ 12.6 µM) in the data set with Acinetobacter sp.; 0.125 µg/mL (≈ 0.198 µM) in the data set on Escherichia coli [10]; 0.5 µg/mL (≈ 0.79 µM) against Escherichia coli [20]; 0.25 µg/mL (≈ 0.395 µM) against Pseudomonas aeruginosa [28]. Moreover, the values for the MIC50 against Pseudomonas aeruginosa [29] and with Klebsiella pneumoniae [36] were 0.25 µg/mL (≈ 0.395 µM) and 4 µg/mL (≈ 6.32 µM), respectively. Further, the MIC90 against Klebsiella pneumoniae [2] is 16 µg/mL (≈ 25.3 µM); against Escherichia coli [4], 2 µg/mL (≈ 3.16 µM); with Acinetobacter sp. it was more than 64 µg/mL; against Escherichia coli [10], 1 µg/mL (≈ 1.58 µM); against Escherichia coli [20], 1 µg/mL (≈ 1.58 µM); against Pseudomonas aeruginosa [28] it was 4 µg/mL (≈ 6.32 µM). The MIC90 is 1 µg/mL (≈ 1.58 µM) in the data set on Pseudomonas aeruginosa [29], 16 µg/mL (≈ 25.3 µM) in the data set on Klebsiella pneumoniae [36] and 1 µg/mL (≈ 1.58 µM) in the data set with Klebsiella pneumoniae [37]. The concentration for half-maximal inhibition (IC50) is 1.67 µM in [3], 0.054 µM in data set [6], 0.62 µM in data set [12] and more than 300 µM in [32]. Also, the MIC is 8 µg/mL (≈ 12.6 µM) against Pseudomonas aeruginosa [5]; 8 µg/mL (≈ 12.6 µM) against Pseudomonas aeruginosa [7]; 8 µg/mL (≈ 12.6 µM) with Pseudomonas aeruginosa [8]; 2 µg/mL (≈ 3.16 µM) with Pseudomonas aeruginosa [9]; 0.5 µg/mL (≈ 0.79 µM) in the data set with Pseudomonas aeruginosa [11]; 0.5 µg/mL (≈ 0.79 µM) in the data set on Pseudomonas aeruginosa [15]. Moreover, the MIC against Pseudomonas aeruginosa [16], in the data set on Pseudomonas aeruginosa [17], with Pseudomonas aeruginosa [18], against Pseudomonas aeruginosa [19], against Acinetobacter baumannii and against Pseudomonas aeruginosa [21] was 0.25 µg/mL (≈ 0.395 µM) each time. Also, the MIC stood at 0.25 µg/mL (≈ 0.395 µM) against Pseudomonas aeruginosa [22]; 32 µg/mL (≈ 50.6 µM) in the data set on Pseudomonas aeruginosa [24]; 0.25 µg/mL (≈ 0.395 µM) against Klebsiella pneumoniae [25]; 2 µg/mL (≈ 3.16 µM) against Klebsiella pneumoniae [27]; 32 µg/mL (≈ 50.6 µM) against Pseudomonas aeruginosa [31]; 0.25 µg/mL (≈ 0.395 µM) with Pseudomonas aeruginosa [33]. For the same molecule, the MIC in the data set with Pseudomonas aeruginosa [34] was determined as 0.06 µg/mL (≈ 0.0948 µM); against Pseudomonas aeruginosa [35] it was 0.25 µg/mL (≈ 0.395 µM). The fraction unbound in data set [13] amounted to 0.91; in data set [14], 0.91; in data set [23], 1. The same molecule yielded a CL with Rattus norvegicus of 10 mL/min/kg. The clearance in data set [26] stood at 8.4 mL/min/kg.
With `CC(C)(O/N=C(\C(=O)N[C@@H]1C(=O)N(S(=O)(=O)O)[C@@H]1CNC(=O)c1cc(=O)c(O)cn1-c1ccccc1)c1csc(N)n1)C(=O)O`, the IC50 in data set [3] is 7.4 µM; in data set [6], 0.14 µM; in data set [12] it was 0.58 µM; in data set [32] it was more than 300 µM. The MIC in the data set on Pseudomonas aeruginosa [9] is 32 µg/mL (≈ 48.2 µM); against Acinetobacter baumannii it was 32 µg/mL (≈ 48.2 µM); against Pseudomonas aeruginosa [21], 32 µg/mL (≈ 48.2 µM); in the data set on Klebsiella pneumoniae [25], 1 µg/mL (≈ 1.51 µM); with Klebsiella pneumoniae [27], 16 µg/mL (≈ 24.1 µM).
On to `CC(C)(O/N=C(\C(=O)N[C@@H]1C(=O)N(S(=O)(=O)O)[C@@H]1CNC(=O)NCc1cc(=O)c(O)cn1O)c1csc(N)n1)C(=O)NO`, for which the IC50 in data set [3] is 11.1 µM; in data set [6], 0.27 µM; in data set [12], 3.02 µM; in data set [32] it was more than 300 µM. The MIC against Pseudomonas aeruginosa [9] is more than 64 µg/mL; in the data set on Acinetobacter baumannii, 1 µg/mL (≈ 1.54 µM); in the data set with Pseudomonas aeruginosa [21], 1 µg/mL (≈ 1.54 µM); in the data set on Klebsiella pneumoniae [25], 8 µg/mL (≈ 12.4 µM); against Klebsiella pneumoniae [27] it was 16 µg/mL (≈ 24.7 µM).
Turning to `CC(C)(O/N=C(\C(=O)N[C@@H]1C(=O)N(S(=O)(=O)O)[C@@H]1Cn1cc(COCc2cc(=O)c(O)cn2O)nn1)c1csc(N)n1)C(=O)O`, the MIC in the data set with Pseudomonas aeruginosa [9] is 1 µg/mL (≈ 1.49 µM); in the data set on Acinetobacter baumannii it was 0.25 µg/mL (≈ 0.372 µM); against Pseudomonas aeruginosa [21], 0.25 µg/mL (≈ 0.372 µM). Also, the figures for the fraction unbound in [13], in data set [14] and in [23] were 0.8, 0.6 and 0.5, respectively. In the data set on Rattus norvegicus, the CL worked out at 94 mL/min/kg. Besides, the clearance in data set [26] amounted to 31.3 mL/min/kg.

For the origin of these results see ChEMBL document CHEMBL2407067, “Pyridone-conjugated monobactam antibiotics with gram-negative activity” (J Med Chem, 2013).
